Among the data in patent US20070135383A1, “Phospholipase inhibitors, including multi-valent phospholipase inhibitors, and use thereof, including as lumen-localized phospholipase inhibitors” (priority 2005, published 2007) are IC50 values, retold here.

The target in experiment [1] is T1, human group 1B PLA2 (hps PLA2) (Homo sapiens, UniProt P04054).
T1 construct: made in house; host or cells: E. coli
The experiment in a line: Fluorimetric PPyrPM assay for group 1B PLA2 inhibition (Example 12). It counts as biochemical. The conditions noted are these: human pancreas secreted PLA2; read-out: ILYPSA IC50 hps PLA2.

Experiment [2] concerns the target T2, mouse group 1B PLA2 (mps PLA2) (Mus musculus, UniProt Q9Z0Y2).
T2 construct: made in house; host or cells: E. coli
Described as above. Type of experiment: biochemical. The conditions noted are these: mouse pancreas secreted PLA2; read-out: ILYPSA IC50 mps PLA2.

T2 sequence (Q9Z0Y2 23-146): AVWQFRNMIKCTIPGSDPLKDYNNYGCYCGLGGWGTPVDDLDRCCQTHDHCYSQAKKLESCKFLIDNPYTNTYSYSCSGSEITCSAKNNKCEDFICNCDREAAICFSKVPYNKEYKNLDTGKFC
T1 sequence (P04054 23-148): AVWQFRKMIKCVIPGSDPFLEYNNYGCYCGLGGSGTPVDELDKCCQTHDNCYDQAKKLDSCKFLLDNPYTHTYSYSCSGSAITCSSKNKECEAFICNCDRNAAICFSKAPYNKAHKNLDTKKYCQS

For `Cc1c(C(=O)C(N)=O)c2c(OCC(=O)O)cccc2n1CCCCCCCCSCCCCCCCCSCCCCCCCCn1c(C)c(C(=O)C(N)=O)c2c(OCC(=O)O)cccc21` [ILY-V-24, 2,2′-(1,1′-(8,8′-(Octane-1,8-diylbis(sulfanediyl))bis(octane-8,1-diyl))bis(3-(2-amino-2-oxoacetyl)-2-methyl-1H-indole-4,1-diyl))bis(oxy)diacetic acid], the IC50 in experiment [1] is 540 nM; in experiment [2] it was 1050 nM.

The IC50 is the midpoint of a concentration-inhibition curve.
